According to ChEMBL document CHEMBL1153297, “Discovery of non-peptidergic MrgX1 and MrgX2 receptor agonists and exploration of an initial SAR using solid-phase synthesis” (Bioorg Med Chem Lett, 2009):
The source made the active and inactive calls. The calls are words filed in the database; no cut-off is given here. Bridge positions count the residues as written; N and C are the ends. Square brackets hold non-standard residues; d marks the D form. Peptide text beside a SMILES is read from it.

Tests used:
[1] = molecular target: T1, Mas-related G-protein coupled receptor member X1 (Homo sapiens, UniProt Q96LB2); assay: Agonist activity at human MrgX1 receptor at 10 uM relative to BAM22; assay type: functional
Macaca mulatta [2] = organism: Macaca mulatta; assay: Agonist activity at monkey MrgX1 receptor at 10 uM relative to BAM22; assay type: functional
[3] = molecular target: T2, Mas-related G-protein coupled receptor member X2 (Homo sapiens) (UniProt Q96LB1); assay: Agonist activity at human MrgX2 receptor at 10 uM relative to cortistatin-14; assay type: functional
T2 sequence (whole entry): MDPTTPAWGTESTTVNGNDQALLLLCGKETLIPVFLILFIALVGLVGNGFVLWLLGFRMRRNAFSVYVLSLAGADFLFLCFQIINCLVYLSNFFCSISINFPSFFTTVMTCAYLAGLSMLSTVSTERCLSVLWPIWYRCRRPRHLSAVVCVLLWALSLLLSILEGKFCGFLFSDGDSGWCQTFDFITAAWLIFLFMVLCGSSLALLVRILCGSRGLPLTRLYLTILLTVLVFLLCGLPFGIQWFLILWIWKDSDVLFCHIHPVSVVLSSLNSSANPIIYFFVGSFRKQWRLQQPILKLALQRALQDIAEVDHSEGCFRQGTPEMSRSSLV

Macaca mulatta [4] = organism: Macaca mulatta; assay: Agonist activity at monkey MrgX2 receptor at 10 uM relative to cortistatin-14; assay type: functional
[5] = Agonist activity at monkey MrgX2 receptor; assay type: functional, Macaca mulatta
[6] = molecular target: T3, Mas-related G-protein coupled receptor member X2 (Homo sapiens, UniProt Q96LB1); assay: Agonist activity at human MrgX2 receptor; assay type: functional
T3 sequence (Q96LB1 whole entry): T2 sequence (whole entry)

[7] = Agonist activity at monkey MrgX1 receptor; assay type: functional, Macaca mulatta
[8] = molecular target: T1, Mas-related G-protein coupled receptor member X1; assay: Agonist activity at human MrgX1 receptor; assay type: functional
[9] = molecular target: T1, Mas-related G-protein coupled receptor member X1; assay: Agonist activity at MrgX1 receptor by calcium mobilization assay; assay type: functional
[10] = Metabolic stability in human liver microsome assessed as intrinsic clearance; assay type: ADME; conditions: liver microsomes

T1 sequence (Q96LB2 whole entry): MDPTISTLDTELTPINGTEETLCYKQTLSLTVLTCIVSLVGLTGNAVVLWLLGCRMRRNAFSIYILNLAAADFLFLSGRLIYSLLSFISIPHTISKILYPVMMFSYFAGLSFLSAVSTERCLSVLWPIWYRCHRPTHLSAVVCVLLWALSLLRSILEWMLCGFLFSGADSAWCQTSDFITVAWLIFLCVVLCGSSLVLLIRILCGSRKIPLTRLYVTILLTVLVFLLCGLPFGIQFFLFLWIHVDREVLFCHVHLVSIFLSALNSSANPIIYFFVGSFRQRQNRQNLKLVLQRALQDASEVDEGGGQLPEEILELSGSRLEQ

SMILES | Efficacy [1] | Efficacy (Macaca mulatta [2]) | Efficacy [3] | Efficacy (Macaca mulatta [4]) | pEC50 [5] | EC50 [6] | pEC50 [7] | EC50 [8] | Activity [9] | microsomal CLint [10]
C[C@@H](O)[C@@H]1NC(=O)[C@@H](CCCCN)NC(=O)[C@H](Cc2c[nH]c3ccccc23)NC(=O)[C@H](Cc2ccccc2)NC(=O)[C@H](Cc2ccccc2)NC(=O)[C@H](CC(N)=O)NC(=O)[C@H](CCCCN)NC(=O)[C@@H](NC(=O)[C@@H]2CCCN2)CSSC[C@@H](C(=O)N[C@@H](CCCCN)C(=O)O)NC(=O)[C@H](CO)NC(=O)[C@H](CO)NC(=O)[C@@H](Cc2ccccc2)NC1=O [CORTISTATIN-14] (H-PCKNFFW[dK]T[dF]SSCK-OH; disulfide 2-13) | inactive | inactive | 100% | 86% | 6.1 |  |  |  |  | 
CCC(C)[C@H]1C(=O)Nc2ccc(N3CCC(NC(C)=O)C3)cc2-c2nc3cc(C(=O)NCc4cccc(C(F)(F)F)c4)ccc3n21 (stereo partly specified) | 129% | 124% | 41% | 27% | 5.7 | 1260 nM | 6.4 | 316 nM |  | 
CC(C)[C@H]1C(=O)Nc2ccc(NCc3ccccc3)cc2-c2nc3cc(C(=O)N(C)C4CCN(C)CC4)ccc3n21 | inactive |  | 87% |  |  | 158 nM |  |  |  | 
CC(C)[C@H]1C(=O)Nc2ccc(NC3CCCCCC3)cc2-c2nc3cc(C(=O)N4CCCN(C)CC4)ccc3n21 | inactive | inactive | 110% | 50% | 6.4 | 316 nM |  |  |  | 
CCC(C)[C@H]1C(=O)Nc2ccc(NCCCN(C)C)cc2-c2nc3cc(C(=O)NCc4cccc(C(F)(F)F)c4)ccc3n21 (stereo partly specified) | 147% | 157% | 103% | 85% | 5.4 | 631 nM | 6.1 | 63.1 nM |  | 
CCC(C)[C@H]1C(=O)Nc2ccc(NCCOCCOCCN)cc2-c2nc3cc(C(=O)NCc4cccc(C(F)(F)F)c4)ccc3n21 (stereo partly specified) | 135% | 126% | inactive | inactive |  |  | 6.1 | 316 nM |  | 
CCC(C)[C@H]1C(=O)Nc2ccc(NCCN3CCCCC3)cc2-c2nc3cc(C(=O)NCc4cccc(C(F)(F)F)c4)ccc3n21 (stereo partly specified) | 133% | 127% | 28% | inactive |  | 2000 nM | 6.1 | 200 nM |  | 
CC(=O)NC1CCN(c2ccc3c(c2)-c2nc4cc(C(=O)N5CCN(c6ccc(F)cc6)CC5)ccc4n2[C@@H](C(C)C)C(=O)N3)C1 (stereo partly specified) | 98% | 89% | inactive | inactive |  |  | 5.6 | 2510 nM |  | 
C[C@@H](O)[C@@H]1NC(=O)[C@H](CCCCN)NC(=O)[C@H](Cc2c[nH]c3ccccc23)NC(=O)[C@H](Cc2ccccc2)NC(=O)[C@H](Cc2ccccc2)NC(=O)[C@H](CC(N)=O)NC(=O)[C@H](CCCCN)NC(=O)[C@@H](NC(=O)[C@@H]2CCCN2)CSSC[C@@H](C(=O)N[C@@H](CCCCN)C(=O)O)NC(=O)[C@H](CO)NC(=O)[C@H](CO)NC(=O)[C@H](Cc2ccccc2)NC1=O [CORTISTATIN-14] (H-PCKNFFWKTFSSCK-OH; disulfide 2-13) |  |  |  |  |  | 501 nM |  |  |  | 
CC(C)[C@H]1C(=O)Nc2ccc(NCCN3CCCCC3)cc2-c2nc3cc(C(=O)N4CCN(c5ccc(F)cc5)CC4)ccc3n21 | 94% | 57% | inactive | inactive |  |  | 6 | 1260 nM |  | 
CC(C)[C@H]1C(=O)Nc2ccc(NCCCN(C)C)cc2-c2nc3cc(C(=O)N4CCN(c5ccc(F)cc5)CC4)ccc3n21 | 108% | 102% | 60% | inactive |  |  | 5.8 | 631 nM |  | 
CC(C)[C@H]1C(=O)Nc2ccc(N3CCN(Cc4ccccc4)CC3)cc2-c2nc3cc(C(=O)N(C)C4CCN(C)CC4)ccc3n21 | inactive | inactive | 216% | 133% | 6.7 | 398 nM |  |  | Active | 5 µL/min/mg
CSCC[C@H](NC(=O)[C@H](Cc1ccccc1)NC(=O)CNC(=O)CNC(=O)[C@@H](N)Cc1ccc(O)cc1)C(=O)N[C@@H](CCCNC(=N)N)C(=O)N[C@@H](CCCNC(=N)N)C(=O)N[C@H](C(=O)NCC(=O)N[C@@H](CCCNC(=N)N)C(=O)N1CCC[C@H]1C(=O)N[C@@H](CCC(=O)O)C(=O)N[C@@H](Cc1c[nH]c2ccccc12)C(=O)N[C@@H](Cc1c[nH]c2ccccc12)C(=O)N[C@@H](CCSC)C(=O)N[C@@H](CC(=O)O)C(=O)N[C@@H](Cc1ccc(O)cc1)C(=O)N[C@@H](CCC(N)=O)C(=O)N[C@@H](CCCCN)C(=O)N[C@@H](CCCNC(=N)N)C(=O)N[C@@H](Cc1ccc(O)cc1)C(=O)NCC(=O)O)C(C)C | 100% | 50% | inactive | inactive |  |  | 4.5 | 794 nM |  | 
